Here are results for four compounds from US20090076075A1, “QUINOLINE DERIVATIVES” (priority 2006, published 2009).

One experiment deals with T1, PDGFRβ (Homo sapiens, UniProt P09619).
T1 construct: endogenous in cells; host or cells: MG63 osteosarcoma cells (ATCC)
Nature of the experiment: In vitro phospho-Tyr751 PDGFRβ ELISA assay (Test (b)). Type of experiment: cell-based. The note with it: MG63 osteosarcoma cells stimulated with PDGFBB, read-out: IC50 versus phospho-Tyr751 formation in PDGFRβ. As for the experimental part:
This assay uses a conventional ELISA method to determine the ability of test compounds to inhibit phosphorylation of tyrosine in PDGFRβ.
Aliquots (100 μl) of culture media were placed in the outer wells to minimise edge effects. The cells were incubated overnight at 37° C. with 7.5% CO2 to allow the cells to adhere to the wells.
Aliquots (3 μl) of each compound concentration were added to test medium (300 μl) to create a second dilution range. Aliquots (16 μl) of each resultant compound concentration were added to the cells in each well. “Maximum” control cells received a dilution of DMSO plus test medium only. “Minimum” control cells received a reference PDGFR inhibitor (16 μl). The cells were incubated for 90 minutes at 37° C. with 7.5% CO2.
The resultant cells were stimulated with PDGFBB using the following procedure. A lyophilised powder of PDGFBB, (Sigma-Aldrich; Catalogue No. P4306) was mixed with sterile water to provide a stock solution of 10 μg/ml of PDGFBB. […] Aliquots thereof (44 μl) were added to compound treated cells and to the “Maximum” control cells. The “Minimum” control cells received medium only. The cells were incubated at 37° C. with 7.5% CO2 for 5 minutes. […] The resultant tissue culture plates were shaken for 5 minutes at ambient temperature to ensure full lysis and then frozen at −20° C. until required.
Aliquots (50 μl) were added to each well and the plates were placed at 4° C. for 16 hours. The wells were washed 5 times (1 minute soak each time) with 300 μl per well of PBST. The wells were treated with 50 μl of 3% BSA in PBST at ambient temperature for 1 hour and subsequently washed twice with 300 μl per well of PBST.
The tissue culture plates with frozen cell lysate were allowed to warm to 0° C.

The target of the next experiment is T2, KDR (VEGFR2) (Homo sapiens, UniProt P35968).
T2 construct: phosphorylation of KDR expressed in human umbilical vein endothelial cells (HUVECs); host or cells: HUVEC
T2 sequence (P35968 20-1356): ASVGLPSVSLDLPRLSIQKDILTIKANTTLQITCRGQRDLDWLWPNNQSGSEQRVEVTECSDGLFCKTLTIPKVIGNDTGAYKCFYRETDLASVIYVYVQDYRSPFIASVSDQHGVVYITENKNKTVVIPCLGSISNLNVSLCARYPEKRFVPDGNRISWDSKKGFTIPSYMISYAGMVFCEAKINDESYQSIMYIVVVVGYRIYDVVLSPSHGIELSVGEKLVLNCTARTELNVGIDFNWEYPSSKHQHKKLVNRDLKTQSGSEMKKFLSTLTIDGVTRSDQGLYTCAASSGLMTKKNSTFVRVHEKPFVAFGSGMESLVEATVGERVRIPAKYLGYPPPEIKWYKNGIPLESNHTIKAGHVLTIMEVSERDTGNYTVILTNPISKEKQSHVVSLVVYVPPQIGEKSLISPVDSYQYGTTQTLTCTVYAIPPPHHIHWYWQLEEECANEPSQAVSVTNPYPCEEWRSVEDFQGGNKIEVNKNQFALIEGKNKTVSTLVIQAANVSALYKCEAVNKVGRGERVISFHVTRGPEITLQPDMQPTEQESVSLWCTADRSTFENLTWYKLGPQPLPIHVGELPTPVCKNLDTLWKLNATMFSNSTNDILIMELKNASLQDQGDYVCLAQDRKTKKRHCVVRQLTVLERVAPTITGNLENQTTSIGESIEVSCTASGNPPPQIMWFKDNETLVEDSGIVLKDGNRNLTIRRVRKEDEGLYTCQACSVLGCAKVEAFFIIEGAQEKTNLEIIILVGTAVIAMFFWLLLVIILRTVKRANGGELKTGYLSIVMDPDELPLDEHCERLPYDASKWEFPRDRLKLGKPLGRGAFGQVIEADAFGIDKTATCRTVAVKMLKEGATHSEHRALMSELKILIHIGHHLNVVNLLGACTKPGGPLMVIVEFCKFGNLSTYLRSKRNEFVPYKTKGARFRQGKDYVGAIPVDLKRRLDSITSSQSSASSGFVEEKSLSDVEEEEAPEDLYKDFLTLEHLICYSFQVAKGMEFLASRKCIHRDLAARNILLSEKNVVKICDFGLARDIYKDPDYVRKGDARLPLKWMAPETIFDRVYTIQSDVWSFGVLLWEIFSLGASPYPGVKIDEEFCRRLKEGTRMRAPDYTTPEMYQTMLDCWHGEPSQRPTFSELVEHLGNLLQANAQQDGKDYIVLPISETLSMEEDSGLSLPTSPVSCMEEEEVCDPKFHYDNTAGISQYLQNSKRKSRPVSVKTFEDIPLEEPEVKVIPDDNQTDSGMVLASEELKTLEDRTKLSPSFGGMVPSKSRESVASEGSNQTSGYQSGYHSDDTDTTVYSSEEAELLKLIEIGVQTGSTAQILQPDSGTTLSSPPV
Nature of the experiment: In vitro phospho-KDR ELISA assay (Test (c)). In kind it is cell-based. The conditions noted are these: HUVECs stimulated with VEGF, read-out: IC50 versus phospho-tyrosine formation in KDR. As for the experimental part:
(c) In Vitro Phospho-KDR ELISA Assay
This assay uses a conventional ELISA method to determine the ability of test compounds to inhibit phosphorylation of tyrosine in KDR (VEGFR2).
The cells were incubated overnight at 37° C. with 7.5% CO2 to allow adherence to the well surface. […] The plates were incubated at 37° C. for 2.5 hours.
Test compounds were prepared as 10 mM stock solutions in DMSO and serially diluted with DMSO as required. […] Aliquots (50 μl) of each resultant compound concentration were added to the cells in each well. […] The cells were incubated for 90 minutes at 37° C. with 7.5% CO2.
The resultant cells were stimulated with VEGF using the following procedure. […] A dilution of this stock solution into ‘serum free medium’ provided a 1000 ng/ml VEGF solution. Aliquots thereof (50 μl) were added to all wells. The cells were incubated at 37° C. with 7.5% CO2 for 5 minutes. […] The resultant tissue culture plates were shaken for 5 minutes at ambient temperature to ensure full lysis before being frozen on dry-ice and stored at −20° C. until required.
The antibody was diluted in PBS to a concentration of 8 μg/ml, aliquots (100 μl) were added to each well and the plates were stored at ambient temperature for 16 hours. The wells were washed 3 times (1 minute soak each time) with 300 μl per well of PBST. The wells were treated with PBS containing 1% filter-sterilised BSA (1% BSA/PBS; 200 μl) at ambient temperature for 1 hour and subsequently washed 3 times with 300 μl per well of PBST.
The tissue culture plates with frozen cell lysate were allowed to warm to 0° C. Aliquots (100 μl) of the HUVEC cell lysate were added and the ELISA plates were agitated at ambient temperature for 3 hours. The wells were washed 3 times with 300 μl per well of PBST.

T1 sequence (P09619 33-1106): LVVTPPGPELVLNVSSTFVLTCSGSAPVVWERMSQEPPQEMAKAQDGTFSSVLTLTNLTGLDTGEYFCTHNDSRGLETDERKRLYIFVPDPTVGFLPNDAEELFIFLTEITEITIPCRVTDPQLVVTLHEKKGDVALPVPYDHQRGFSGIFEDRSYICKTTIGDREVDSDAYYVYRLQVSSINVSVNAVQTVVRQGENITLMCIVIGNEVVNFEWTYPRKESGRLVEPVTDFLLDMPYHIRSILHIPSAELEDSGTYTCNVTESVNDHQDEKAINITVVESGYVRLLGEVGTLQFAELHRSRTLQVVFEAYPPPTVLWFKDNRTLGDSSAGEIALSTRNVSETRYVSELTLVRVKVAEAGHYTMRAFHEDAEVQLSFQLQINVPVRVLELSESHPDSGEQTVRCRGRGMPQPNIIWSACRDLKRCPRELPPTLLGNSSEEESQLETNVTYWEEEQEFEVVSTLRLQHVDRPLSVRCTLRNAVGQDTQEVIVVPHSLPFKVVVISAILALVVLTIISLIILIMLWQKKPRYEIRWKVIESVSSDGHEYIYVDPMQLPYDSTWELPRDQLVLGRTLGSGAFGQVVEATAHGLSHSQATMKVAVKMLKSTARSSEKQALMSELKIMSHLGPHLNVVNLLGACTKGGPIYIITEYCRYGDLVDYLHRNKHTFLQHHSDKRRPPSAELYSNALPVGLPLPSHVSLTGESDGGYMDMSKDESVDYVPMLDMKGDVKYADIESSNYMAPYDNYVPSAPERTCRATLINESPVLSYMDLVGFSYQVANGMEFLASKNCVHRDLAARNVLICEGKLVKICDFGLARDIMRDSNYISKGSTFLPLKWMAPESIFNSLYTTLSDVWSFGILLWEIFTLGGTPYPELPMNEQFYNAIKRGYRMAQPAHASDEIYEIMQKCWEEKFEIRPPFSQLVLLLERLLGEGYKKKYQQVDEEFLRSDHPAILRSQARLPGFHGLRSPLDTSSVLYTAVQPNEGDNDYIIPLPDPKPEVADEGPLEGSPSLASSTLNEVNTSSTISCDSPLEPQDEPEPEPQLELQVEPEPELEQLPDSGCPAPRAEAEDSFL

For the compound `CCc1cc(NC(=O)Cc2ncc(Oc3ccnc4ccc(F)cc34)cc2OC)no1` [N-(5-ethylisoxazol-3-yl)-2-[5-(6-fluoroquinolin-4-yloxy)-3-methoxypyridin-2-yl]acetamide], the values for the IC50 on PDGFRβ and at KDR (VEGFR2) were ~5 nM and > 2000 nM, respectively.

Consider `COc1ccc2c(Oc3cnc(CC(=O)Nc4noc(C)c4C)c(OC)c3)ccnc2c1` [N-(4,5-dimethylisoxazol-3-yl)-2-[3-methoxy-5-(7-methoxyquinolin-4-yloxy)pyridin-2-yl]acetamide], for which the IC50 at PDGFRβ was ~5 nM; on KDR (VEGFR2), > 2000 nM.

Take `COc1cc2nccc(Oc3cnc(CC(=O)Nc4n[nH]c(C)c4C)c(OC)c3)c2cc1OC` [N-(4,5-dimethylpyrazol-3-yl)-2-[5-(6,7-dimethoxyquinolin-4-yloxy)-3-methoxypyridin-2-yl]acetamide]: the half-maximal inhibitory concentration (IC50) at PDGFRβ is ~5 nM; on KDR (VEGFR2) it was > 2000 nM.

For `CCc1cc(NC(=O)Cc2ccc(Oc3ccnc4cc(OC)c(C#N)cc34)cn2)n[nH]1` [Example 3, N-(5-ethylpyrazol-3-yl)-2-[5-(6-cyano-7-methoxyquinolin-4-yloxy)pyridin-2-yl]acetamide], the IC50 at PDGFRβ is ~30 nM.
